Reference: ChEMBL document CHEMBL2331539, “A comparative protease stability study of synthetic macrocyclic peptides that mimic two endocrine hormones” (Bioorg Med Chem Lett, 2013)
Square brackets hold non-standard residues; d marks the D form. Peptide text beside a SMILES is read from it. Dap = NC[C@H](N)C(=O)O

Experiments:
Vasopressin V2 receptor = Vasopressin V2 receptor (Homo sapiens, UniProt P30518); assay: Binding affinity to vasopression V2 receptor (unknown origin) on isolated cell membrane by vasopression competition binding assay
Vasopressin V2 receptor, sequence (P30518 whole entry): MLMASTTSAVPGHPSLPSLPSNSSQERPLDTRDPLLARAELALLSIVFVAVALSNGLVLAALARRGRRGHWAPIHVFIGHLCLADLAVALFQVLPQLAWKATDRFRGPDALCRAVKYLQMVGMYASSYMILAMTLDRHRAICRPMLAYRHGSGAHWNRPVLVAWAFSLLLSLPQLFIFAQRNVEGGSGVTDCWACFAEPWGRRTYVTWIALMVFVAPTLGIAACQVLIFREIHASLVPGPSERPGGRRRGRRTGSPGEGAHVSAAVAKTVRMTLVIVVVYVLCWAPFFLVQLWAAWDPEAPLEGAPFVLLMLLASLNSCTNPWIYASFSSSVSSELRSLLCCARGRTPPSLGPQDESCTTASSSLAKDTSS

[1] = Stability of the compound in presence of pronase (unknown origin) assessed as degradation measured after 360 mins by HPLC analysis; format: ADME; details: read-out: Drug degradation
[2] = Stability of the compound in presence of pronase (unknown origin) assessed as degradation measured after 120 mins by HPLC analysis; format: ADME; details: read-out: Drug degradation
[3] = Stability of the compound in presence of pronase (unknown origin) assessed as degradation measured after 60 mins by HPLC analysis; format: ADME; details: read-out: Drug degradation
[4] = Stability of the compound in presence of alpha-chymotrypsin (unknown origin) assessed as degradation measured after 360 mins by HPLC analysis; format: ADME, Homo sapiens; details: read-out: Drug degradation
[5] = Stability of the compound in presence of alpha-chymotrypsin (unknown origin) assessed as degradation measured after 120 mins by HPLC analysis; format: ADME, Homo sapiens; details: read-out: Drug degradation
[6] = Stability of the compound in presence of alpha-chymotrypsin (unknown origin) assessed as degradation measured after 60 mins by HPLC analysis; format: ADME, Homo sapiens; details: read-out: Drug degradation
[7] = Stability of the compound in presence of pepsin (unknown origin) assessed as degradation measured after 360 mins by HPLC analysis; format: ADME, Homo sapiens; details: read-out: Drug degradation
[8] = Stability of the compound in presence of pepsin (unknown origin) assessed as degradation measured after 120 mins by HPLC analysis; format: ADME, Homo sapiens; details: read-out: Drug degradation
[9] = Stability of the compound in presence of pepsin (unknown origin) assessed as degradation measured after 60 mins by HPLC analysis; format: ADME, Homo sapiens; details: read-out: Drug degradation

## NC(=O)CC[C@@H]1NC(=O)[C@H](Cc2ccccc2)NC(=O)[C@H](Cc2ccc(O)cc2)NC(=O)[C@H](Cc2ccc(O)cc2)NC(=O)CNC(=O)[C@H](CC(N)=O)NC1=O (cyclo(FQNGYY))
Vasopressin V2 receptor
  IC50: 2 µM
[1]
  metabolised at 6 h: 64.2%
[2]
  metabolised at 2 h: 50.2%
[3]
  metabolised at 1 h: 27.9%
[4]
  metabolised at 6 h: 24.7%
[5]
  metabolised at 2 h: 1.49%
[6]
  metabolised at 1 h: -0.98%
[7]
  metabolised at 6 h: 5.23%
[8]
  metabolised at 2 h: 10.2%
[9]
  metabolised at 1 h: 5.39%

## NC[C@@H]1NC(=O)CNC(=O)[C@H](CC(N)=O)NC(=O)[C@H](CCC(N)=O)NC(=O)[C@H](Cc2ccccc2)NC(=O)[C@H](Cc2ccc(O)cc2)NC1=O (cyclo([Dap]YFQNG))
Vasopressin V2 receptor
  IC50: 10.2 µM
[1]
  metabolised at 6 h: 0.882%
[2]
  metabolised at 2 h: 0.323%
[3]
  metabolised at 1 h: -2.07%
[4]
  metabolised at 6 h: 20.3%
[5]
  metabolised at 2 h: 7.08%
[6]
  metabolised at 1 h: 6.62%
[7]
  metabolised at 6 h: 2.08%
[8]
  metabolised at 2 h: 3.52%
[9]
  metabolised at 1 h: 0.716%

## CC[C@H](C)[C@@H]1NC(=O)[C@H](Cc2ccc(O)cc2)NC(=O)[C@H](CN)NC(=O)CNC(=O)[C@H](CC(N)=O)NC(=O)[C@H](CCC(N)=O)NC1=O (cyclo([Dap]YIQNG))
[1]
  metabolised at 6 h: 6.2%
[2]
  metabolised at 2 h: 2.99%
[3]
  metabolised at 1 h: 11.5%
[4]
  metabolised at 6 h: 0.0955%
[5]
  metabolised at 2 h: 0%
[6]
  metabolised at 1 h: 0.136%
[7]
  metabolised at 6 h: 4.66%
[8]
  metabolised at 2 h: -0.41%
[9]
  metabolised at 1 h: 2.34%

## CC[C@H](C)[C@@H]1NC(=O)[C@H](Cc2ccc(O)cc2)NC(=O)[C@@H](N)CSSC[C@@H](C(=O)N2CCC[C@H]2C(=O)N[C@@H](CC(C)C)C(=O)NCC(N)=O)NC(=O)[C@H](CC(N)=O)NC(=O)[C@H](CCC(N)=O)NC1=O [OXYTOCIN]
[1]
  metabolised at 6 h: 100%
[2]
  metabolised at 2 h: 96.8%
[3]
  metabolised at 1 h: 69.6%
[4]
  metabolised at 6 h: 74.6%
[5]
  metabolised at 2 h: 43.2%
[6]
  metabolised at 1 h: 25.1%

## NC(=O)CC[C@@H]1NC(=O)[C@H](Cc2ccccc2)NC(=O)[C@H](Cc2ccc(O)cc2)NC(=O)[C@@H](N)CSSC[C@@H](C(=O)N2CCC[C@H]2C(=O)N[C@@H](CCCN=C(N)N)C(=O)NCC(N)=O)NC(=O)[C@H](CC(N)=O)NC1=O [VASOPRESSIN]
[1]
  metabolised at 6 h: 48.2%
[2]
  metabolised at 2 h: 15.9%
[3]
  metabolised at 1 h: 4.4%
[4]
  metabolised at 6 h: 46.1%
[5]
  metabolised at 2 h: 32.1%
[6]
  metabolised at 1 h: 18.7%
[7]
  metabolised at 6 h: 80.1%
[8]
  metabolised at 2 h: 78.6%
[9]
  metabolised at 1 h: 79.8%
